Experimental data reported in patent US9840513B2 (AbbVie S.à.r.l., priority 2015, dated 2017).
pEC50: −log10 of the molar value.

Molecular target: T1, F508delCFTR cell surface expression in CFBE41o-F508delCFTR-HRP cells (Homo sapiens, UniProt P13569, DEL508-508)
T1 construct: fused on or other part: Horseradish peroxidase (HRP) reporter inserted in the fourth exofacial (extracellular) loop of CFTR; expression is doxycycline-inducible
Experiment: Cell Surface Expression-Horse Radish Peroxidase (CSE-HRP) Assay
Format: cell-based
Conditions: for pEC50: CFBE41o-F508delCFTR-HRP cells, 18-24 hours at 33° C., 8-point curve, highest concentration 20 μM; for Maximum % activity (%): maximum at any tested concentration, normalized to on-plate positive control (3 μM)
Method in brief: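 Correctors incubated 18-24 h at 33 °C on doxycycline-induced (0.5 μg/mL, 72 h) CFBE41o-F508delCFTR-HRP cells, 3-fold series from 20 μM. After DPBS washes, luminol luminescence read; activity expressed relative to DMSO and a 3 μM positive control, EC50 fitted from triplicate plates.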

T1 sequence (P13569 with tags, fused parts or gaps DEL508-508 limits assumed): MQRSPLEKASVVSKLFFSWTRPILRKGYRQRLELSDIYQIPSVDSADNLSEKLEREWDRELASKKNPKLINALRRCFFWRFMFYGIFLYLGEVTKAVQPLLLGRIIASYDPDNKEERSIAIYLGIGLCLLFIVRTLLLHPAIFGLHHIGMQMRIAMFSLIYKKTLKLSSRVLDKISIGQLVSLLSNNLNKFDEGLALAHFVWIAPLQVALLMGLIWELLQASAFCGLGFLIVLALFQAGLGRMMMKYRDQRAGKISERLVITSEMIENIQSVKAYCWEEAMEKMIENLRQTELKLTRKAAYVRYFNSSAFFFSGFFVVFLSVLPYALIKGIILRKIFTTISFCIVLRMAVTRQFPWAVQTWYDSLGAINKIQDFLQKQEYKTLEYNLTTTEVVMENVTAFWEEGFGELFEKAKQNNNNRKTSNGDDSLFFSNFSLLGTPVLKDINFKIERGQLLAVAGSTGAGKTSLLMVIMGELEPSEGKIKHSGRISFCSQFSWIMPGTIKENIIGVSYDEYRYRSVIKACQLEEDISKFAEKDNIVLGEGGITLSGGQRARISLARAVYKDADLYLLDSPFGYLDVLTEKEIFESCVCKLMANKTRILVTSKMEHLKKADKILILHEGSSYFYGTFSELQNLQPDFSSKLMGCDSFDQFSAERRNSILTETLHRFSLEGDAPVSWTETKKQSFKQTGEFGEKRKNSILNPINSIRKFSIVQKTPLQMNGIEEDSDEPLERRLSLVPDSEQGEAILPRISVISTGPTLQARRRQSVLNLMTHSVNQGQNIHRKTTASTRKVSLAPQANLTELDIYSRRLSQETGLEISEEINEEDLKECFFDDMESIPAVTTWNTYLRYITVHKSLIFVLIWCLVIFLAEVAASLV
T1 sequence (P13569 919-1480 limits assumed, stated change not applied): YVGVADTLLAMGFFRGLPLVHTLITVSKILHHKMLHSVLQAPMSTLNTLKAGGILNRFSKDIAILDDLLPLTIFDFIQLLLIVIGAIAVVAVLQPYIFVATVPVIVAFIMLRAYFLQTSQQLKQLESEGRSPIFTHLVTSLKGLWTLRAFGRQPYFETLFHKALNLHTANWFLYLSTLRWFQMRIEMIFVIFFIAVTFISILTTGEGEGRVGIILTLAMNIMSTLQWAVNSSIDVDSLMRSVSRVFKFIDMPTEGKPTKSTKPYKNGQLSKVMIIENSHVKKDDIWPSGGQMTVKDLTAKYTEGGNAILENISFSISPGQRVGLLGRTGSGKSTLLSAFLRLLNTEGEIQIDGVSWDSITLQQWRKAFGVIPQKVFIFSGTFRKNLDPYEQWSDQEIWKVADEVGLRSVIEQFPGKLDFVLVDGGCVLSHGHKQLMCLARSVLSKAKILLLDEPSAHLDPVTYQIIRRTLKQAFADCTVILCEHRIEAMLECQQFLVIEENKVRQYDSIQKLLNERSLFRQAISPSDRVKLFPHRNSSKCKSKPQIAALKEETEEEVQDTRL

Compound	pEC50	Maximum % activity (%)
CC(C)(C)c1cc2cc(NC(=O)[C@@]3(C)COc4cc5c(cc43)OC(F)(F)O5)c(F)cc2n1C[C@@H](O)CO [Example 133, (7R)—N-{2-tert-butyl-1-[(2R)-2,3-dihydroxypropyl]-6-fluoro-1H-indol-5-yl}-2,2-difluoro-7-methyl-6,7-dihydro-2H-furo[2,3-f][1,3]benzodioxole-7-carboxamide]	6.52	132
CC(C)(CO)c1cc2cc(NC(=O)[C@]3(C)COc4cc5c(cc43)OC(F)(F)O5)c(F)cc2n1C[C@@H](O)CO [Example 138, (7S)—N-{1-[(2R)-2,3-dihydroxypropyl]-6-fluoro-2-(1-hydroxy-2-methylpropan-2-yl)-1H-indol-5-yl}-2,2-difluoro-7-methyl-6,7-dihydro-2H-furo[2,3-f][1,3]benzodioxole-7-carboxamide]	5.12	23
C[C@]1(C(=O)N[C@@H]2C[C@H](c3ccc(C(=O)O)cc3)Oc3cc(OC(F)F)ccc32)COc2cc3c(cc21)OC(F)(F)O3 [Example 139, 4-[(2R,4R)-7-(difluoromethoxy)-4-{[(7R)-2,2-difluoro-7-methyl-6,7-dihydro-2H-furo[2,3-f][1,3]benzodioxole-7-carbonyl]amino}-3,4-dihydro-2H-1-benzopyran-2-yl]benzoic acid]	7.70	158
Cc1ccc(NC(=O)[C@@]2(C)COc3cc4c(cc32)OC(F)(F)O4)nc1-c1ccc(C(=O)NS(C)(=O)=O)cc1 [Example 142, (7R)-2,2-difluoro-N-(6-{4-[(methanesulfonyl)carbamoyl]phenyl}-5-methylpyridin-2-yl)-7-methyl-6,7-dihydro-2H-furo[2,3-f][1,3]benzodioxole-7-carboxamide]	5.60	180
CC(C)(CO)c1cc2cc(NC(=O)[C@@]3(C)COc4cc5c(cc43)OC(F)(F)O5)c(F)cc2[nH]1 [Example 143, (7R)-2,2-difluoro-N-[6-fluoro-2-(1-hydroxy-2-methylpropan-2-yl)-1H-indol-5-yl]-7-methyl-6,7-dihydro-2H-furo[2,3-f][1,3]benzodioxole-7-carboxamide]	6.31	129
CCOC(=O)[C@H]1CC[C@H]([C@@H]2C[C@H](NC(=O)[C@@]3(C)COc4cc5c(cc43)OC(F)(F)O5)c3ccc(OC(F)(F)F)cc3O2)CC1 [Example 147, ethyl trans-4-[(2S,4S)-4-{[(7R)-2,2-difluoro-7-methyl-6,7-dihydro-2H-furo[2,3-f][1,3]benzodioxole-7-carbonyl]amino}-7-(trifluoromethoxy)-3,4-dihydro-2H-1-benzopyran-2-yl]cyclohexane-1-carboxylate]	5.65	79
CCOC(=O)[C@H]1CC[C@H]([C@H]2C[C@@H](NC(=O)[C@@]3(C)COc4cc5c(cc43)OC(F)(F)O5)c3ccc(OC(F)(F)F)cc3O2)CC1 [Example 148, ethyl trans-4-[(2R,4R)-4-{[(7R)-2,2-difluoro-7-methyl-6,7-dihydro-2H-furo[2,3-f][1,3]benzodioxole-7-carbonyl]amino}-7-(trifluoromethoxy)-3,4-dihydro-2H-1-benzopyran-2-yl]cyclohexane-1-carboxylate]	7.39	145
CCOC(=O)[C@H]1CC[C@H]([C@@H]2C[C@H](NC(=O)[C@@]3(C)COc4cc5c(cc43)OC(F)(F)O5)c3ccc(OC)cc3O2)CC1 [Example 152, ethyl trans-4-[(2S,4S)-4-{[(7R)-2,2-difluoro-7-methyl-6,7-dihydro-2H-furo[2,3-f][1,3]benzodioxole-7-carbonyl]amino}-7-methoxy-3,4-dihydro-2H-1-benzopyran-2-yl]cyclohexane-1-carboxylate]	6.09	102
CCOC(=O)[C@H]1CC[C@H]([C@H]2C[C@@H](NC(=O)[C@@]3(C)COc4cc5c(cc43)OC(F)(F)O5)c3ccc(OC)cc3O2)CC1 [Example 153, ethyl trans-4-[(2R,4R)-4-{[(7R)-2,2-difluoro-7-methyl-6,7-dihydro-2H-furo[2,3-f][1,3]benzodioxole-7-carbonyl]amino}-7-methoxy-3,4-dihydro-2H-1-benzopyran-2-yl]cyclohexane-1-carboxylate]	6.52	135
COc1ccc2c(c1)O[C@H]([C@H]1CC[C@H](C(=O)O)CC1)C[C@@H]2NC(=O)[C@@]1(C)COc2cc3c(cc21)OC(F)(F)O3 [Example 154, trans-4-[(2S,4S)-4-{[(7R)-2,2-difluoro-7-methyl-6,7-dihydro-2H-furo[2,3-f][1,3]benzodioxole-7-carbonyl]amino}-7-methoxy-3,4-dihydro-2H-1-benzopyran-2-yl]cyclohexane-1-carboxylic acid]	6.04	103
CCOC(=O)[C@H]1CC[C@H]([C@H]2C[C@@H](NC(=O)[C@@]3(C)COc4cc5c(cc43)OC(F)(F)O5)c3ccc(OC(F)F)cc3O2)CC1 [Example 156, ethyl trans-4-[(2R,4R)-7-(difluoromethoxy)-4-{[(7R)-2,2-difluoro-7-methyl-6,7-dihydro-2H-furo[2,3-f][1,3]benzodioxole-7-carbonyl]amino}-3,4-dihydro-2H-1-benzopyran-2-yl]cyclohexane-1-carboxylate]	7.05	142
CCOC(=O)[C@H]1CC[C@@H]([C@H]2C[C@@H](NC(=O)[C@@]3(C)COc4cc5c(cc43)OC(F)(F)O5)c3ccc(OC(F)(F)F)cc3O2)CC1 [Example 157, ethyl cis-4-[(2R,4R)-4-{[(7R)-2,2-difluoro-7-methyl-6,7-dihydro-2H-furo[2,3-f][1,3]benzodioxole-7-carbonyl]amino}-7-(trifluoromethoxy)-3,4-dihydro-2H-1-benzopyran-2-yl]cyclohexane-1-carboxylate]	6.77	117
CCOC(=O)[C@H]1CC[C@@H]([C@@H]2C[C@H](NC(=O)[C@@]3(C)COc4cc5c(cc43)OC(F)(F)O5)c3ccc(OC(F)(F)F)cc3O2)CC1 [Example 158, ethyl cis-4-[(2S,4S)-4-{[(7R)-2,2-difluoro-7-methyl-6,7-dihydro-2H-furo[2,3-f][1,3]benzodioxole-7-carbonyl]amino}-7-(trifluoromethoxy)-3,4-dihydro-2H-1-benzopyran-2-yl]cyclohexane-1-carboxylate]	5.44	111
CCOC(=O)[C@H]1CC[C@H]([C@@H]2C[C@H](NC(=O)[C@@]3(C)COc4cc5c(cc43)OC(F)(F)O5)c3ccc(OC(F)F)cc3O2)CC1 [Example 159, ethyl trans-4-[(2S,4S)-7-(difluoromethoxy)-4-{[(7R)-2,2-difluoro-7-methyl-6,7-dihydro-2H-furo[2,3-f][1,3]benzodioxole-7-carbonyl]amino}-3,4-dihydro-2H-1-benzopyran-2-yl]cyclohexane-1-carboxylate]	5.99	82
C[C@]1(C(=O)N[C@H]2C[C@@H]([C@H]3CC[C@@H](C(=O)O)CC3)Oc3cc(OC(F)(F)F)ccc32)COc2cc3c(cc21)OC(F)(F)O3 [Example 161, cis-4-[(2S,4S)-4-{[(7R)-2,2-difluoro-7-methyl-6,7-dihydro-2H-furo[2,3-f][1,3]benzodioxole-7-carbonyl]amino}-7-(trifluoromethoxy)-3,4-dihydro-2H-1-benzopyran-2-yl]cyclohexane-1-carboxylic acid]	5.29	101
C[C@]1(C(=O)N[C@H]2C[C@@H]([C@H]3CC[C@H](C(=O)O)CC3)Oc3cc(OC(F)F)ccc32)COc2cc3c(cc21)OC(F)(F)O3 [Example 163, trans-4-[(2S,4S)-7-(difluoromethoxy)-4-{[(7R)-2,2-difluoro-7-methyl-6,7-dihydro-2H-furo[2,3-f][1,3]benzodioxole-7-carbonyl]amino}-3,4-dihydro-2H-1-benzopyran-2-yl]cyclohexane-1-carboxylic acid]	6.09	75
CCOC(=O)C1([C@H]2C[C@@H](NC(=O)[C@@]3(C)COc4cc5c(cc43)OC(F)(F)O5)c3ccc(OC(F)(F)F)cc3O2)CC1 [Example 164, ethyl 1-[(2R,4R)-4-{[(7R)-2,2-difluoro-7-methyl-6,7-dihydro-2H-furo[2,3-f][1,3]benzodioxole-7-carbonyl]amino}-7-(trifluoromethoxy)-3,4-dihydro-2H-1-benzopyran-2-yl]cyclopropane-1-carboxylate]	6.97	122
CCOC(=O)C1([C@@H]2C[C@H](NC(=O)[C@@]3(C)COc4cc5c(cc43)OC(F)(F)O5)c3ccc(OC(F)(F)F)cc3O2)CC1 [Example 165, ethyl 1-[(2S,4S)-4-{[(7R)-2,2-difluoro-7-methyl-6,7-dihydro-2H-furo[2,3-f][1,3]benzodioxole-7-carbonyl]amino}-7-(trifluoromethoxy)-3,4-dihydro-2H-1-benzopyran-2-yl]cyclopropane-1-carboxylate]	5.58	85
C[C@@]1(C(=O)N[C@@H]2C[C@H]([C@H]3CC[C@H](C(=O)O)CC3)Oc3cc(OC(F)(F)F)ccc32)CCc2cc3c(cc21)OC(F)(F)O3 [Example 169, trans-4-[(2R,4R)-4-{[(5R)-2,2-difluoro-5-methyl-6,7-dihydro-2H,5H-indeno[5,6-d][1,3]dioxole-5-carbonyl]amino}-7-(trifluoromethoxy)-3,4-dihydro-2H-1-benzopyran-2-yl]cyclohexane-1-carboxylic acid]	5.90	107
